{
  "source": "patent US20180372720A1",
  "about": "“STABLE ISOTOPE LABELING KINETICS - SECONDARY ION MASS SPECTROMETRY (SILK SIMS) AND METHODS OF USE THEREOF” (Washington University, priority 2017, published 2018)",
  "key": {"amyloid-β plaques": {"tested_on": "amyloid-β plaques", "conditions": "mouse, in vivo", "experimental": "To assess the feasibility of detecting ^13C6-leucine isotopic enrichment in native amyloid-β plaques, tracer was administered to APP/PS1 mice at 3.5 months of age (pre-plaque pathology) for 10 and 5 weeks (FIG. 2A).\nTwo male double transgenic mice expressing chimeric mouse/human amyloid precursor protein (Mo/HuAPP695swe) and a mutant human presenilin 1 (PS1-dE9) both directed to CNS neurons (stock 34832-JAX) were kindly provide by Dr. Timothy Miller. Animals were given leucine-free chow (Catalog #1831936, Test Diet, St. Louis, Mo.) with 5 mg/mL ^12C6-leucine added to 2% sucrose-containing drinking water to control leucine intake for a one week acclimation period. After the one-week acclimation period, animals were given 5 mg/mL ^13C6- or ^12C6-leucine orally via 2% sucrose drinking water, averaging 36 mL of H2O/week (FIG. 2). Animals were 4 months old at the time of labeling and 6.5 months old at the end of labeling. Following the end of the labeling paradigm, animals were anesthetized with 65 mg/kg pentobarbital sodium and sacrificed by decapitation. Brains were removed and placed in 10% neutral-buffer formalin (Catalog #15740-01, EMS, Hatfield, Pa.). All animal procedures were conducted in accordance with the Washington University Animal Studies Committee, and are consistent with the National Institutes of Health (NIH) guidelines for the care and use of animals. Pieces of mouse brain were washed into NaHCa and incubated overnight at 4° C. The following morning, samples were stained with 1% osmium/NaHCa for 1 hour, washed 4 times over 1 hour and then en bloc stained with 1% uranyl acetate/H2O for 1 hour in the dark. Samples were rinsed with 3 exchanges of water, 10 minutes each and then processed for LR White embedding as described above with the addition of being gold-coated once on the Si wafer. Serial adjacent sections were place on glass microscope slides for toluidine blue staining for light microscopy.\nData was acquired on either a Cameca NanoSIMS 50 at WASHU (cells and human tissue) or NanoSIMS 50 L at Brigham and Women's Hospital (mouse tissue). Images of the B-cell hybridoma used to calculate that ^13C6-leucine standard curve were acquired at a 50 μm raster for 15 minutes at 1 ms/px and 65.5 s/plane (dwell time) for a total of 10 planes (i.e., cycles) per mass (256×256 px). APP/PS1 mouse brain tissue was acquired at a 17-60 μm raster for 11-87 minutes at 2 ms/px and 131 s/plane (dwell time) for a total of 5-40 cycles (i.e., planes) per mass (256×256 px).\nEach analysis was performed in 24-hour blocks with measurements on SiC standard to assess instrument stability followed by measurements on an un-labeled control prior to SILK-SIMS data acquisition. Raw image data was imported into custom, in-house particle definition software, L'Image, to produce quantitative mass images of heavy and light isotopes, and determine where any isotopic anomalies may be located. The fractional uncertainty, f, of the heavy/light isotope ratios in each region-of-interest (ROI) was calculated in Excel as the sum in quadrature of the standard deviation of the average ratios measured for non-labeled material, σStd, and the Poisson errors, σROI, of the ROI itself, as given by the equation"}, "Aβ proteoforms": {"tested_on": "Aβ proteoforms", "conditions": "Pt2, 8 days between labeling and expiration", "method": "1 g of frontal lobe tissue was homogenized in ice-cold 1×PBS with 0.05% CHAPS and centrifuged at 17,000×g for 30 min at 4° C. as previously described^4. The supernatant was spun for 1 hr at 100,000×g at 4° C. and the resulting pellet solubilize in 5 M guanidine overnight at 4° C. with rotation. Next, samples were spun for 20 min at 17,000×g at 4° C. and the supernatant was diluted 1:10 in 1×PBS in BSA-block tubes as previously described^4. Samples were immunoprecipitated (IP) with 50 uL of HJ5.1 anti-Aβ antibody (mid-domain epitope) coupled Dynabeads (Catalog #14311 D, Invitrogen, Carlsbad, Calif.) made following the manufacturer's instructions. After overnight incubation at 4° C. IPs were eluted in neat formic acid and dried in vacuo. Samples were resuspended in 50 mM TEABC (Catalog #17902, Sigma, St. Louis, Mo.), spiked with ^15N-Aβ internal standard, and digested overnight with 0.25 ng/μL Lys-N(Catalog #100965-1, Seikagaku Biobusiness Corp., Tokyo, Japan) at 4° C.\nSamples were resuspended in 1% FA/10% ACN (v/v) with 20 nM BSA digest (Catalog #1863078, Pierce, Rockford, Ill.). Samples were analyzed in triplicate by nanoLC-MS/MS on an LTQ-Orbitrap Fusion (Thermo Fisher Scientific) in positive ion mode. Separations were performed using an online NanoAcquity UPLC (Waters, Milford, Mass.) using an ACQUITY UPLC HSS T3 (360 μm OD×75 μm ID) column packed with 10 cm C18 (1.8 μm, 100 Å, Waters) at 300 nL/min and heated to 65° C. Mobile phases were 0.1% FA in water (A) and 0.1% FA in ACN (B). Samples were eluted from the column with the gradient starting at 12% B, which was ramped to 32% B over 10 min and further increased to 90% B over 5 min and held for 1 min, before re-equilibration to 12% B over 2 min. Total run time, including column equilibration, sample loading, and analysis was 30 min. The mass spectrometer was operated in targeted MS2 mode. MS2 spectra were acquired in the Orbitrap (30,000 at m/z 400) in centroid mode using XCalibur, version 4.0 (Thermo Fisher Scientific). Ion injection times for the targeted MS2 scans for labeled and unlabeled respectively (in ms) were: Aβ mid-domain (54, 1080), Aβ40 (54, 540), and Aβ42 (54, 1080). The Orbitrap automatic gain control targets were set 5×10^5 for all proteoforms except Aβ42, which was set to 1×10^6. The targeted precursor ions were sequentially isolated in the quadrupole and fragmented in the Orbitrap using HCD (isolation width 1.6 Da, normalized collision energy 25%, activation Q 0.250, and activation time 10 ms). […]\nData (.raw files) were imported into a Skyline template containing the Lys-N C-terminal peptides of Aβ8, 40, 42 and the mid-domain. […] The sum of all transitions (b ions monitored for each parent peptide) were summed for unlabeled and SILK Aβ peptides and exported from Skyline to Excel. […]"}, "[1]": {"conditions": "mouse, in vivo", "method": "Mouse whole blood was spun at 1,000×g for 10 min and the plasma (supernatant) removed. Plasma proteins were precipitated with ice-cold acetone followed by de-lipidation with hexane and the aqueous fraction was dried in vacuo^1. 1:1 MTBSTFA/acetonitrile was added and samples were incubated 70° C. for 30 min. Duplicate 1 μL injections were made into an Agilent 5973 MSD mass spectrometer using a 30 μm×0.25 mm DB-5MS column (Agilent Technologies). […] The molar fraction of labeled leucine was calculated as: MFL=TTR/(1+TTR)."}, "Aβ plaques": {"tested_on": "Aβ plaques", "conditions": "in vivo", "method": "Human cortical tissue samples were obtained from the Charles F. and Joanne Knight Alzheimer's Disease Research Center (ADRC) at Washington University School of Medicine in Saint Louis, Mo. Cognitive status was determined with a validated retrospective postmortem interview with an informant to establish the Clinical Dementia Rating (CDR). […] At autopsy, the left hemisphere was fixed in 10% neutral buffered formalin and stored at room temperature until further preparation.\nBlocks were polymerized at 80° C. for 72 hrs. Tissue blocks were sectioned using a diamond ultrathin section knife on a Reichert Ultra-Cut E ultramicrotome at 300-500 nm thick. […]\nEach analysis was performed in 24-hour blocks with measurements on SiC standard to assess instrument stability followed by measurements on an un-labeled control prior to SILK-SIMS data acquisition. Raw image data was imported into custom, in-house particle definition software, L'Image, to produce quantitative mass images of heavy and light isotopes, and determine where any isotopic anomalies may be located. The fractional uncertainty, f, of the heavy/light isotope ratios in each region-of-interest (ROI) was calculated in Excel as the sum in quadrature of the standard deviation of the average ratios measured for non-labeled material, σStd, and the Poisson errors, σROI, of the ROI itself, as given by the equation […]"}},
  "data": [
    {"smiles": "CC(C)C[C@H](N)C(=O)O", "note": "[^13C6-leucine]", "values": [
      {"measurement": "normalized tracer enrichment ratio", "setting": "amyloid-β plaques", "result": "0.015±2.22×10^−4"},
      {"measurement": "raw tracer enrichment ratio", "setting": "amyloid-β plaques", "result": "0.015±1.56×10^−5"},
      {"measurement": "^13C/^12C isotope ratio", "setting": "amyloid-β plaques; po", "result": 2.7, "unit": "%"},
      {"measurement": "^13C/^12C ratio", "setting": "amyloid-β plaques; po", "result": 3.7, "unit": "%"},
      {"measurement": "normalized ^13C^14N−/^12C^14N− ratio", "setting": "amyloid-β plaques; po", "result": "0.024±3.43×10^−4"},
      {"measurement": "raw ^13C^14N−/^12C^14N− ratio", "setting": "amyloid-β plaques; po", "result": "0.023±1.41×10^−5"},
      {"measurement": "detection of labeled Aβx-38", "setting": "Aβ proteoforms", "result": "unable detect"},
      {"measurement": "enrichment above isotopic background, Aβ mid-domain", "setting": "Aβ proteoforms", "result": 0.053, "unit": "%"},
      {"measurement": "enrichment above isotopic background, Aβx-40", "setting": "Aβ proteoforms", "result": 0.112, "unit": "%"},
      {"measurement": "enrichment above isotopic background, Aβx-42", "setting": "Aβ proteoforms", "result": 0.022, "unit": "%"},
      {"measurement": "Average Mol fraction labeled", "setting": "[1]", "result": 72.02, "unit": "%"},
      {"measurement": "increase above the natural abundance of ^13C/^12C", "setting": "Aβ plaques", "result": 18, "unit": "%"},
      {"measurement": "mean ratio of ^13C^14N−/^12C^14N−", "setting": "Aβ plaques", "result": "1.31%±0.05"}
    ]}
  ]
}
